2 compounds from patent publication US6380185B1, “N-substituted benzoyl indoles as estrogenic agents” (American Home Products Corporation, priority 1999, dated 2002) can be followed below.

The structures appear in SMILES notation.

The target in one series is T1, estrogen receptor (ER) (Homo sapiens, UniProt P03372).
T1 construct: expressed in transfected cells; host or cells: CHO cells (ribosome-free cytosol)
T1 sequence (P03372 1-595): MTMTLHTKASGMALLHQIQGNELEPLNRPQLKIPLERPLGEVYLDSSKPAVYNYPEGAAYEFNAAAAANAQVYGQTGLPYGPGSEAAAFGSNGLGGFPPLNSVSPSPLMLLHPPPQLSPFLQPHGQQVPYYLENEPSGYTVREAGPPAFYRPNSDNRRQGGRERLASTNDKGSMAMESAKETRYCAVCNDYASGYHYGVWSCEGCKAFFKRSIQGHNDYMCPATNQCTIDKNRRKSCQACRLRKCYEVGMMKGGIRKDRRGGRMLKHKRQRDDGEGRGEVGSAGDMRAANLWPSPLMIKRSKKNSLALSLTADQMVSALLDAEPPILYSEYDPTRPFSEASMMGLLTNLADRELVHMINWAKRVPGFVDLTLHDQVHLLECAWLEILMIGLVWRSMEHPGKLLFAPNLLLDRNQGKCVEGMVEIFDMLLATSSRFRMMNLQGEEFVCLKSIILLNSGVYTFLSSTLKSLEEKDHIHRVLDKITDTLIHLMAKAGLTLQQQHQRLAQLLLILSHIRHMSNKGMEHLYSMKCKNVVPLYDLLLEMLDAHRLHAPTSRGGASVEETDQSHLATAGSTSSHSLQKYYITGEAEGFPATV
The experiment in a line: Estrogen Receptor Binding/Competition Assay ([3H]17β-estradiol displacement).

A further series deals with T2, estrogen receptor (Homo sapiens, UniProt P03372).
T2 sequence (P03372 1-595): T1 sequence (P03372 1-595)
The experiment in a line: Transfection Assay. The series is classed as cell-based.

Turning to `Cc1c(-c2ccc(O)cc2)n(C(=O)c2ccc(OCCN3CCCCC3)cc2)c2ccc(O)cc12` [Example No. 2, [5-Hydroxy-2-(4-hydroxy-phenyl)-3-methyl-indol-1-yl][4-(2-piperidin-1-yl-ethoxy)-phenyl]-methanone], the melting point (usually the temperature, or range, at which the solid turns liquid) was in the range of 127 to 130 °C. The IC50 (as a rule, the concentration at which inhibition is half-maximal) at estrogen receptor (ER) amounted to 200 nM. Besides, the “Transfection Assay % Control” value on estrogen receptor (Concentration 1 × 10^−6 M + 1 nM estradiol) turned out to be 13%. The “Transfection Assay % Control” value on estrogen receptor (Concentration 1 × 10^−6 M, compound alone) was 0%.
The compound `Cc1c(-c2ccc(OCc3ccccc3)cc2)n(C(=O)c2ccc(OCCN3CCCCC3)cc2)c2ccc(OCc3ccccc3)cc12` [compound 1, [5-Benzyloxy-2-(4-benzyloxy-phenyl)-3-methyl-indol-1-yl]-[4-(2-piperidin-1-yl-ethoxy)-phenyl]-methanone] had a melting point of 48 to 51 °C.
